# In US10167300B2, “Metalloenzyme inhibitor compounds as fungicides” (priority 2014, dated 2019):
# Like-named read-outs stand apart in the source and are kept apart here.
# Experiment: Type B (low volume, EC formulation, track sprayer 200 L/ha) assay, leaf blotch of wheat, SEPTTR field isolate (FI SEPTTR)
# Type: in vivo, Mycosphaerella graminicola on wheat plants (variety Yuma)
# Details: Zymoseptoria tritici, 72 h, field isolate, low volume EC, 100 g/ha, wheat (Yuma)
# Protocol: Example A: Evaluation of Fungicidal Activity: Leaf Blotch of Wheat (Mycosphaerella graminicola; Anamorph: Septoria tritici; Bayer Code SEPTTR)
# For Type A assays, technical grades of the experimental fungicides in Table 4 below were dissolved in acetone, and then mixed with nine volumes of water containing 110 ppm Triton X-100. The fungicide solutions were applied onto wheat seedlings using an automated booth sprayer. For Type B assays, emulsifiable concentrate (EC) formulations of technical grades of the experimental fungicides in Table 4 below were prepared at 10% (w/v), and then mixed with 150 volumes of 0.1% Trycol 5941. These solutions were applied onto wheat seedlings using an automated track sprayer at 200 L/ha. All sprayed plants were allowed to air dry prior to further handling.
# Wheat plants (variety Yuma) were grown from seed in a greenhouse in 50% mineral soil/50% soil-less Metro mix until the first leaf was fully emerged, with 7-10 seedlings per pot. Prior to or after application of experimental fungicides, plants were inoculated either with spores of a standard laboratory SEPTTR isolate (SI SEPTTR) or with spores from a SEPTTR field isolate collected from Wellsbourne, England in 2012 (FI SEPTTR). After inoculation the plants were kept for 3 days at 20° C. in 100% relative humidity (one day in a dark dew chamber followed by two days in a lighted dew chamber). Plants were then transferred to a 20° C. greenhouse for disease development. When disease symptoms were fully expressed on untreated plants, infection levels on treated plants were assessed on a scale of 0 to 100 percent disease severity. Percent disease control was calculated using the ratio of disease severity on treated plants relative to untreated plants.
# [1] = 3 Day Curative, read-out: Disease Control, FI SEPTTR Type B Assay (100 g/ha) 3 DC
# [2] = 3 Day Protectant, read-out: Disease Control, FI SEPTTR Type B Assay (100 g/ha) 3 DP
Structure (SMILES),pest or weed control at 100 g/ha [1] [%],pest or weed control at 100 g/ha [2] [%]
"CO/N=C(/C)c1ccc(-c2ccc(C(O)(c3cncnc3)C(C)(C)C)nc2)cc1 (stereo not drawn) [Compound 132, (Z)-1-(4-(6-(1-hydroxy-2,2-dimethyl-1-(pyrimidin-5-yl)propyl)pyridin-3-yl)phenyl)ethanone O-methyl oxime]",80 to 100,80 to 100
CC(C)(C)C(O)(c1cncnc1)c1ccc(-c2ccc(F)cc2F)cn1 (stereo not drawn) [Compound 164],80 to 100,80 to 100
"CC(C)(C)C(O)(c1cncnc1)c1ccc(-c2ccc(I)cc2)cn1 (stereo not drawn) [Compound 165, 1-(5-(4-iodophenyl)pyridin-2-yl)-2,2-dimethyl-1-(pyrimidin-5-yl)propan-1-ol]",80 to 100,80 to 100
CC(C)(C)C(O)(c1cncnc1)c1ccc(-c2ccc(F)cc2Cl)cn1 (stereo not drawn) [Compound 166],80 to 100,80 to 100
COC(c1cncnc1)(c1ccc(-c2ccc(OC(F)(F)F)cn2)cn1)C(C)(C)C (stereo not drawn) [Compound 173],80 to 100,80 to 100
CC(C)(C)C(O)(c1ccc(-c2ccc(OC(F)(F)F)cn2)cn1)c1cnccn1 (stereo not drawn) [Compound 174],60 to 79,80 to 100
"CC(C)(C#N)c1ccc(-c2ccc(C(O)(c3cncnc3)C(C)(C)C)nc2)c(C#N)c1 (stereo not drawn) [Compound 175, 5-(2-cyanopropan-2-yl)-2-(6-(1-hydroxy-2,2-dimethyl-1-(pyrimidin-5-yl)propyl)pyridin-3-yl)benzonitrile]",80 to 100,80 to 100
CCOC(c1cncnc1)(c1ccc(-c2ccc(OC(F)(F)F)cc2F)cn1)C(C)C (stereo not drawn) [Compound 176],< 40,60 to 79
CCOC(C)(c1cncnc1)c1ccc(-c2ccc(OC(F)(F)F)cc2)cn1 (stereo not drawn) [Compound 177],< 40,60 to 79
CC(C)(C)C(O)(Cc1cncnc1)c1ccc(-c2ccc(C3(C#N)CC3)cc2)cn1 (stereo not drawn) [Compound 178],< 40,60 to 79
CCc1cc(C(C)(C)C#N)ccc1-c1ccc(C(O)(c2cncnc2)C(C)(C)C)nc1 (stereo not drawn) [Compound 179],80 to 100,80 to 100
CC(C)(C)C(O)(c1ccc(-c2ccc(OCC(F)(F)F)nc2)cn1)c1cnccn1 (stereo not drawn) [Compound 180],60 to 79,40 to 59
CC(C)(C)c1ccc(-c2ccc(C(O)(Cc3cncnc3)C(C)(C)C)nc2)cc1 (stereo not drawn) [Compound 181],< 40,60 to 79
CC#CC(OC)(c1cncnc1)c1ccc(-c2ccc(OC(F)(F)F)cc2F)cn1 (stereo not drawn) [Compound 182],< 40,60 to 79
CC(C)(C#N)c1ccc(-c2ccc(C(O)(c3cncnc3)C(C)(C)C)nc2)nc1 (stereo not drawn) [Compound 183],80 to 100,80 to 100
OC(c1cncnc1)(c1ccc(-c2ccc(OC(F)(F)F)cc2F)cn1)C1CC1 (stereo not drawn) [Compound 184],< 40,40 to 59
CC#CC(O)(c1cncnc1)c1ccc(-c2ccc(OC(F)(F)F)cc2F)cn1 (stereo not drawn) [Compound 185],< 40,80 to 100
COc1ncncc1C(O)(c1ccc(-c2ccc(OCC(F)(F)F)cn2)cn1)C(C)(C)C (stereo not drawn) [Compound 186],40 to 59,80 to 100
COc1ncncc1C(O)(c1ccc(-c2ccc(OC(F)(F)F)cc2F)cn1)C(C)(C)C (stereo not drawn) [Compound 187],80 to 100,80 to 100
CC(C)(C#N)c1ccc(-c2ccc(C(O)(c3cnccn3)C(C)(C)C)nc2)cc1 (stereo not drawn) [Compound 188],60 to 79,80 to 100
C#CCOC(c1cncnc1)(c1ccc(-c2ccc(OC(F)(F)F)cc2F)cn1)C(C)(C)C (stereo not drawn) [Compound 189],40 to 59,80 to 100
CCOC(CC)(c1cncnc1)c1ccc(-c2ccc(OC(F)(F)F)cc2F)cn1 (stereo not drawn) [Compound 190],60 to 79,40 to 59
C#CCOC(c1cncnc1)(c1ccc(-c2ccc(OC(F)(F)F)cc2F)cn1)C(C)C (stereo not drawn) [Compound 191],< 40,80 to 100
COC(c1cncnc1)(c1ccc(-c2ccc(C3(C#N)CC3)cc2)cn1)C(C)(C)C (stereo not drawn) [Compound 192],80 to 100,80 to 100

Structure (SMILES),pest or weed control at 100 g/ha [1] [%],pest or weed control at 100 g/ha [2] [%]
COC(c1cncnc1)(c1ccc(-c2ccc(OC(F)(F)F)cc2)cn1)C(C)C (stereo not drawn) [Compound 194],< 40,80 to 100
CC(C)(C)C(O)(Cc1cncnc1)c1ccc(-c2ccc(OCC(F)(F)F)nc2)cn1 (stereo not drawn) [Compound 195],< 40,40 to 59
C#CCOC(c1cncnc1)(c1ccc(-c2ccc(OC(F)(F)F)cc2)cn1)C(C)(C)C (stereo not drawn) [Compound 197],< 40,80 to 100
CCOC(c1cncnc1)(c1ccc(-c2ccc(OC(F)(F)F)cc2)cn1)C(C)(C)C (stereo not drawn) [Compound 198],< 40,80 to 100
COC(c1cncnc1)(c1ccc(-c2ccc(OC(F)(F)F)cc2F)cn1)C1CC1 (stereo not drawn) [Compound 200],< 40,80 to 100
CC(C)(C)c1ccc(-c2ccc(C(O)(Cc3cccnc3)C(C)(C)C)nc2)cc1 (stereo not drawn) [Compound 201],60 to 79,80 to 100
CC(C)(C)C(O)(c1cncc(F)c1)c1ccc(-c2ccc(OC(F)(F)F)cc2)cn1 (stereo not drawn) [Compound 202],60 to 79,60 to 79
COc1ncncc1C(O)(c1ccc(-c2ccc(OCC(F)(F)F)cc2)cn1)C(C)(C)C (stereo not drawn) [Compound 203],40 to 59,80 to 100
CC#CC(OCC)(c1cncnc1)c1ccc(-c2ccc(OC(F)(F)F)cc2F)cn1 (stereo not drawn) [Compound 204],< 40,60 to 79
CCC(O)(c1cncnc1)c1ccc(-c2ccc(OC(F)(F)F)cc2F)cn1 (stereo not drawn) [Compound 205],40 to 59,80 to 100
COC(C)(c1cncnc1)c1ccc(-c2ccc(OC(F)(F)F)cc2F)cn1 (stereo not drawn) [Compound 206],< 40,40 to 59
CC(C)(C)C(O)(c1ccc(-c2ccc(OC(F)(F)F)cc2)cn1)c1cnccn1 (stereo not drawn) [Compound 207],40 to 59,60 to 79
CC(C)(C)C(O)(c1cncnc1)c1ccc(-c2c(F)cc(OC(F)(F)F)cc2F)cn1 (stereo not drawn) [Compound 210],80 to 100,80 to 100
COC(c1cncnc1)(c1ccc(-c2ccc(OC(F)(F)F)cc2F)cn1)C(C)(C)C (stereo not drawn) [Compound 211],80 to 100,80 to 100
Cc1cc(C2(C#N)CCC2)ccc1-c1ccc(C(O)(c2cncnc2)C(C)(C)C)nc1 (stereo not drawn) [Compound 212],80 to 100,80 to 100
CCC(OC)(c1cncnc1)c1ccc(-c2ccc(OC(F)(F)F)cc2)cn1 (stereo not drawn) [Compound 213],60 to 79,60 to 79
COC(c1cncnc1)(c1ccc(-c2ccc(C(C)(C)C#N)cc2)cn1)C(C)(C)C (stereo not drawn) [Compound 214],< 40,80 to 100
CCOC(C)(c1cncnc1)c1ccc(-c2ccc(OC(F)(F)F)cc2F)cn1 (stereo not drawn) [Compound 215],< 40,< 40
"CSc1cc(C(C)(C)C#N)ccc1-c1ccc(C(O)(c2cncnc2)C(C)(C)C)nc1 (stereo not drawn) [Compound 216, 2-(4-(6-(1-hydroxy-2,2-dimethyl-1-(pyrimidin-5-yl)propyl)pyridin-3-yl)-3-(methylthio)phenyl)-2-methylpropanenitrile]",80 to 100,80 to 100
CC#CC(OC)(c1cncnc1)c1ccc(-c2ccc(OC(F)(F)F)cc2)cn1 (stereo not drawn) [Compound 217],< 40,< 40
COc1ncncc1C(O)(c1ccc(-c2ccc(OCC(F)(F)F)nc2)cn1)C(C)(C)C (stereo not drawn) [Compound 218],< 40,80 to 100
CC(C)(C)C(O)(Cc1cncnc1)c1ccc(-c2ccc(SC(F)(F)F)cc2)cn1 (stereo not drawn) [Compound 219],40 to 59,60 to 79
CCOC(c1cncnc1)(c1ccc(-c2ccc(OC(F)(F)F)cc2F)cn1)C(C)(C)C (stereo not drawn) [Compound 220],< 40,80 to 100
CC(O)(c1cncnc1)c1ccc(-c2ccc(OC(F)(F)F)cc2F)cn1 (stereo not drawn) [Compound 221],< 40,40 to 59
